We go through 1 compound from patent US11865126B2, “Method for treating anxiety disorders, headache disorders, and eating disorders with psilocybin” (priority 2019, dated 2024).

The subject of the test is healthy subjects. The test can be described thus: Scale of Social Responsibility (SSR). The class given is in vivo, human. How it is done: In some embodiments, the Scale of Social Responsibility (SSR) is utilized to evaluate the safety and/or efficacy of psilocybin. The SSR measures perceptions regarding the importance of ethics and social responsibility.
The following list of outcome measures are non-exhaustive. • a. The short-term change from Baseline (Day −1 [Visit 2]) to Day 7 (Visit 5) in cognitive measures of attention, spatial and working memory and executive function was measured by a composite score of the CANTAB Panel (Spatial Working Memory [SWM], Rapid Visual Information Processing [RVP], Paired Associates Learning [PAL]). • b. The short-term change from Baseline (Day −1 [Visit 2]) to Day 7 (Visit 5) in Social Cognition Panel scales (Pictorial Empathy Test [PET], Reading the Mind in the Eyes Test [RMET], Toronto Empathy Questionnaire [TEQ], Social Value Orientation [SVO], Scale of Social Responsibility [SSR]). • c. The change from Baseline (Day −1 [Visit 2]) to Day 28 (Visit 6) in cognitive measures of attention, spatial and working memory and executive function as measured by a composite score of the CANTAB Panel (SWM, RVP, PAL). • d. The long-term change from Baseline (Day −1 [Visit 2]) to Day 84 (Visit 7) in Social Cognition Panel scales (PET, RMET, TEQ, SVO, SSR). • e. Dose-related differences between cognitive effects of psilocybin at Baseline (Day −1 [Visit 2]), Day 7 (Visit 5) and Day 28 (Visit 6), as measured by a composite score of the CANTAB Panel (SWM, RVP, PAL). • f. Dose-related differences between psychological effects of psilocybin at Baseline (Day −1 [Visit 2]), Day 7 (Visit 5) and Day 84 (Visit 7), as measured by Social Cognition Panel scales (PET, RMET, TEQ, SVO, SSR). • g. Differences in cognitive effects of psilocybin between psilocybin-naïve and experienced subjects at Baseline (Day −1 [Visit 2]), Day 7 (Visit 5) and Day 28 (Visit 6), as measured by a composite score of the CANTAB Panel (SWM, RVP, PAL). • h. Differences in Positive and Negative Affect Schedule (PANAS) after study drug administration on Day 0 (Visit 3). • i. Differences between psilocybin and placebo in the Emotion Recognition Test (ERT), Intra-Extra Dimensional Set Shift (IED), One Touch Stockings (OTS), Verbal Fluency and Digit Span Forward at Day 7 (Visit 5). • j. A composite score of the CANTAB Panel, including the following tests: • i. Spatial Working Memory (SWM) (performed at Visit 2, Visit 5, and Visit 6). • ii. Rapid Visual Information Processing (RVP) (performed at Visit 2, Visit 5, and Visit 6). • iii. Paired Associates Learning (PAL) (performed at Visit 2, Visit 5, and Visit 6). • k. Cognitive Flexibility Panel • i. Emotion Recognition Task (ERT) (performed at Visit 5). • ii. Intra-Extra Dimensional Set Shift (IED) (performed at Visit 5). • iii. One Touch Stockings (OTS) (performed at Visit 5). • iv. Verbal Fluency (performed at Visit 5). • v. Digit Span Forward (performed at Visit 5). • l. Five Dimension Altered States of Consciousness questionnaire (5D-ASC) (performed at Visit 3). • m. PANAS (performed at Visit 2 and Visit 3). • n. NEO-Five Factor Inventory (NEO-FFI) (performed at Visit 2, Visit 5, and Visit 7). • o. Symptom Checklist-90 item (SCL-90) (performed at Visit 2, Visit 5, and Visit 7). • p. Life Changes Inventory (LCI): The LCI measures changes in attitudes and values after near-death experiences often used to evaluate personal transformation following spiritually oriented experiences and practices. (performed at Visit 5 and Visit 7). • q. Social Cognition Panel scales • i. Pictorial Empathy Test (PET) (performed at Visit 2, Visit 5, and Visit 7). • ii. Reading the Mind in the Eyes Test (RMET) (performed at Visit 2, Visit 5, and Visit 7). • iii. Social Value Orientation (SVO) (performed at Visit 2, Visit 5, and Visit 7). • iv. Toronto Empathy Questionnaire (TEQ) (performed at Visit 2, Visit 5, and Visit 7). • v. Scale of Social Responsibility (SSR) (performed at Visit 2, Visit 5, and Visit 7). • r. Sheehan Suicidality Tracking Scale (SSTS) • s. […]

As for `CN(C)CCc1c[nH]c2cccc(OP(=O)(O)O)c12` [psilocybin], where the note is “Day 7, MMRM”, the “SSR compliance social rules change from baseline, LS mean difference Psilocybin 10 mg - Placebo” value was determined as 0.0; the “SSR compliance social rules change from baseline, LS mean difference Psilocybin 25 mg - Placebo” value is 0.1; the “SSR compliance social rules change from baseline, LS mean difference Psilocybin 25 mg-10 mg” value was 0.1; the “SSR fulfilling expectations change from baseline, LS mean difference Psilocybin 10 mg - Placebo” value is 0.1. For the setting “Day 7, MMRM”, the “SSR fulfilling expectations change from baseline, LS mean difference Psilocybin 25 mg - Placebo” value worked out at 0.2; the “SSR fulfilling expectations change from baseline, LS mean difference Psilocybin 25 mg-10 mg” value is recorded as 0.1; the “SSR global change from baseline, LS mean difference Psilocybin 10 mg - Placebo” value stood at 1.2; the “SSR global change from baseline, LS mean difference Psilocybin 25 mg - Placebo” value was found to be 2.8. In addition, the “SSR global change from baseline, LS mean difference Psilocybin 25 mg-10 mg” value (Day 7, MMRM) is given as 1.6. Under “Day 84, MMRM”, the “SSR compliance social rules change from baseline, LS mean difference Psilocybin 10 mg - Placebo” value is given as −0.0; the “SSR compliance social rules change from baseline, LS mean difference Psilocybin 25 mg - Placebo” value worked out at 0.1; the “SSR compliance social rules change from baseline, LS mean difference Psilocybin 25 mg-10 mg” value amounted to 0.1; the “SSR fulfilling expectations change from baseline, LS mean difference Psilocybin 10 mg - Placebo” value is −0.1. In addition, for the setting “Day 84, MMRM”, the “SSR fulfilling expectations change from baseline, LS mean difference Psilocybin 25 mg - Placebo” value amounted to 0.0; the “SSR fulfilling expectations change from baseline, LS mean difference Psilocybin 25 mg-10 mg” value is given as 0.2; the “SSR global change from baseline, LS mean difference Psilocybin 10 mg - Placebo” value is 0.3; the “SSR global change from baseline, LS mean difference Psilocybin 25 mg - Placebo” value is recorded as 2.2. Also, under “Day 84, MMRM”, the “SSR global change from baseline, LS mean difference Psilocybin 25 mg-10 mg” value worked out at 1.8. The “SSR fulfilling expectations change from baseline, LS mean” value (Psilocybin 10 mg, Day 7, MMRM) was −0.1. The “SSR fulfilling expectations change from baseline, LS mean” value (Psilocybin 10 mg, Day 84, MMRM) is listed as 0.2. For the same compound, under “Psilocybin 25 mg, Day 7, MMRM”, the “SSR fulfilling expectations change from baseline, LS mean” value is listed as −0.0. In addition, the “SSR fulfilling expectations change from baseline, LS mean” value (Psilocybin 25 mg, Day 84, MMRM) is given as −0.0.
